The text below walks through data of patent US20240123079A1 (Seagen Inc., priority 2021, published 2024).

The EC50 is the concentration at which the effect is half-maximal.

For series [1], the system named is THP1-Dual™ reporter cells. Put plainly: THP1-Dual cell reporter assay (IRF-Lucia luciferase reporter). It counts as cell-based, human. The following applies: for EC50: Homo sapiens, THP1-Dual, free compounds, 24 h, Lucia reporter signal, read-out: EC50; for potency relative to other free compound: free drug. The essentials:
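THP1-Dual monocytic cells (~100,000/well) were exposed to compound for 24 h (ADCs 48 h). Secreted IRF-driven Lucia luciferase in the supernatant was quantified by QUANTI-Luc luminescence.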
Background: A reporter such as luciferase makes a cellular process visible.

For series [2], the system named is 786-O. The series is described as follows: Cancer cell direct cytotoxicity assay (CellTiter-Glo), 786-O. The class given is cell-based. The following applies: Homo sapiens, 786-0, 96 h, free compound, read-out: Compound X50. On the procedure:
(§1) Bystander activity of ADCs was evaluated using Renca cancer cells and THP1-Dual™ cells (InvivoGen) which contain an IRF-Lucia luciferase reporter. Cells were cultured in RPMI-1640 (Gibco) with 10% heat-inactivated fetal bovine serum, Pen-Strep (100 U/ml-100 μg/ml, Gibco), HEPES (10 mM, Gibco), sodium pyruvate (1 mM, Gibco), MEM non-essential amino acids (1×, Gibco), GlutaMAX (1×, Gibco), and beta-mercaptoethanol (55 μM, Gibco). Renca cells were plated in a 96-well flat bottom tissue culture-treated clear polystyrene plate (Corning Costar #3596) at 50,000 cells per well in 100 μL. On the day following the initial plating, 50,000 THP1-Dual™ cells were added to each well with the indicated concentration of ADC in a total volume of 200 μL. Supernatant was harvested at 48 hours post addition of the THP1-Dual™ cells. To measure Lucia reporter signal, 10 μL of supernatant was combined with 40 μL of QUANTI-Luc™ Luminescence assay reagent (Invivogen PN: rep-qlc1) in a 96-well clear flat bottom tissue culture-treated black polystyrene plate (Corning Costar PN: 3603) and read on a Perkin Elmer Envision plate reader. In some experiments, HEK 293T cells engineered to express a murine protein typically expressed by immune cells (target antigen C— an immune cell antigen) were plated as above instead of Renca tumor cells. Cancer Cell Direct Cytotoxicity Assay
(§2) Cancer cells were counted and plated in 40 μL complete growth media in 384-well, white-walled tissue culture treated plates (Corning). Cell plates were incubated at 37° C. and with 5% CO2 overnight to allow the cells to equilibrate. Stock solutions containing ADCs or free drugs were serially diluted in RPMI-1640+20% fetal bovine serum (FBS). 10 μL of each concentration were then added to each cell plate in duplicate. Cells were then incubated at 37° C. and with 5% CO2 for 96 hours, upon which, the cell plates were removed from the incubator and allowed to cool to room temperature for 30 minutes prior to analysis. […] The luminescence of the samples was measured using an EnVision Multimode plate reader (Perkin Elmer, Waltham, MA). […]

The subject of series [3] is DEL. Put plainly: Cancer cell direct cytotoxicity assay (CellTiter-Glo), DEL. It counts as cell-based. The following applies: Homo sapiens, 96 h, free compound, read-out: Compound X50. On the procedure:
as §1, §2

Series [4] has as its system MDAMB231. Put plainly: Cancer cell direct cytotoxicity assay (CellTiter-Glo), MDAMB231. The following applies: Homo sapiens, MDA-MB-231; MDAMB231, 96 h, free compound; read-out: Compound X50. The class given is cell-based. As for the experimental part: as §1, §2
(Cellular ATP, detected with luciferase, serves as a proxy for viable cell number.)

The subject of series [5] is MOLM-13. The series is described as follows: Cancer cell direct cytotoxicity assay (CellTiter-Glo), MOLM-13. It counts as cell-based. To be noted: Homo sapiens; MOLM-13, 96 h, free compound; read-out: Compound X50. As for the experimental part: as §1, §2
For series [6], the system named is SU-DHL-4. Put plainly: Cancer cell direct cytotoxicity assay (CellTiter-Glo), SU-DHL-4. To be noted: Homo sapiens; SU-DHL-4, 96 h, free compound; read-out: Compound X50. The class given is cell-based. As for the experimental part: as §1, §2
The subject of series [7] is human cancer cell lines. The series is described as follows: Cancer cell direct cytotoxicity assay, panel statement. The class given is cell-based. The following applies: panel of human cancer cell lines. As for the experimental part: as §1
Cancer cells were counted and plated in 40 μL complete growth media in 384-well, white-walled tissue culture treated plates (Corning). Cell plates were incubated at 37° C. and with 5% CO2 overnight to allow the cells to equilibrate. […] The luminescence of the samples was measured using an EnVision Multimode plate reader (Perkin Elmer, Waltham, MA). […]
Compound 12a was conjugated to both targeted and non-binding antibodies using a variety of non-cleavable linkers (12, 17, 19-24) and the resulting ADCs were assessed for their ability to activate THP1-Dual™ reporter cells. […] We also evaluated the ability of these linkers to directly kill cancer cells when conjugated to targeted mAbs binding tumor antigen A or antigen B (CD30).

Series [8] concerns Renca cancer cells. Put plainly: Renca tumor model, in vivo anti-tumor activity and weight change. To be noted: for anti-tumor activity / tumor growth delay: Renca tumor-bearing Balb/c mice. On the procedure:
In some experiments, Renca tumor cells were engineered to express the indicated murine or human target antigen.
When tumor volumes reached 100 mm^3, the mice were dosed with either compounds or ADCs by intraperitoneal or intravenous injection at the indicated dosing schedule and tumor volumes were monitored twice weekly. Compounds were formulated in 40% PEG400 in saline.
A syngeneic system was used to assess the ability of the STING agonist ADCs to induce immune responses in vivo and drive an anti-tumor immune response. The Renca system is a subcutaneous, mouse renal adenocarcinoma model. Female Balb/c mice were implanted with 2×10^6 Renca cells subcutaneously in the flank on day 0. When mean tumor size of 100 mm^3 (measured by using the formula Volume (mm^3)=0.5*Length*Width^2 where length is the longer dimension) was reached mice were randomized into treatment groups of ≥5 mice per group. Animals were then treated intraperitoneally (ADCs or compounds) or intravenously (compounds) with the indicated treatment every 7 days, for 3 doses total (or as indicated). Tumor length and width and the weight of the animals was measured throughout the study and tumor volume was calculated using the formula above. Animals were followed until the tumor volume reached ˜1000 mm^3; animals were then euthanized.

Molecules are shown by their SMILES.

As to `CCn1nc(C)cc1C(=O)Nc1nc2cc(C(N)=O)cc(O)c2n1C/C=C/Cn1c(NC(=O)c2cc(C)nn2CC)nc2cc(C(N)=O)cc(OC)c21` [Compound 1, (E)-1-(4-(5-carbamoyl-2-(1-ethyl-3-methyl-1H-pyrazole-5-carboxamido)-7-hydroxy-1H-benzo[d]imidazol-1-yl)but-2-en-1-yl)-2-(1-ethyl-3-methyl-1H-pyrazole-5-carboxamido)-7-methoxy-1H-benzo[d]imidazole-5-carboxamide], the EC50 in series [1] was determined as 5 nM. Moreover, the “potency relative to other free compound” value in series [1] was “significantly more potent”. Besides, the IC50 in series [2] was greater than 1000 nM; in series [3], 2 nM; in series [4], greater than 1000 nM; in series [5] it was 42 nM; in series [6], greater than 1000 nM. Moreover, in series [7], the “direct cytotoxic activity on cancer cell lines” value is “demonstrated direct cytotoxic activity on a subset of cancer cell lines”. In series [8] (q7dx3), the “anti-tumor activity / tumor growth delay” value is listed as “some tumor growth delay”. Further, in series [8] (Renca tumor-bearing mice), the “tolerability” value is given as “well tolerated”. Moreover, in series [8] (Renca tumor-bearing mice, q7dx3), the “average weight loss after the 1st and 2nd dose” value is less than 5%.
For the compound `CCn1nc(C)cc1C(=O)Nc1nc2cc(C(N)=O)cc(OC)c2n1C/C=C/Cn1c(NC(=O)c2cc(C)nn2CC)nc2cc(C(N)=O)cc(OCCCNC)c21` [Compound 12a], in series [1], the 50% effective concentration (EC50) was 21 nM. In addition, the “potency relative to other free compound” value in series [1] is “less potent than compound 1 and compound A”. The IC50 was greater than 1000 nM in series [2]; 3 nM in series [3]; greater than 1000 nM in series [4]; 87 nM in series [5]; greater than 1000 nM in series [6]. Besides, in series [7], the “direct cytotoxic activity on cancer cell lines” value is recorded as “demonstrated direct cytotoxic activity on a subset of cancer cell lines”. Besides, in series [8] (q7dx3), the “anti-tumor activity / tumor growth delay” value is reported as “limited anti-tumor efficacy”.
